The record followed here is BindingDB's records for doi:10.1021/jm050224y (Philipps-Universitat Marburg, 2005).

This assay concerns the target T1, Dimer of Gag-Pol polyprotein [489-587] (Human immunodeficiency virus 1, UniProt P12497).
T1 construct: 489-587
The assay can be described thus: Protease Inhibition Assay. The note with it: pH 5.5; 25 °C. The protocol:
The inhibition assays were performed by mixing enzyme and fluorogenic substrate in the presence of inhibitor compounds. The hydrolysis of the substrate was recorded as an increase of the fluorescence intensity. Ki values were calculated from the IC50 values taken from a dose-response curve with the fluorescent assay using the equation Ki = (IC50 - [E]/2)/ (1 +[S]/Km), where [E] and [S] are the protease and substrate concentrations, Km is the Michaelis-Menten constant.

Bounds are passed on as bounds.

With `O=C(N[C@H](Cc1cccc(Br)c1)[C@@H](O)C[C@@H](CCc1ccc(Cl)cc1Cl)S(=O)(=O)c1ccc(F)cc1)[C@H]1CCCO1` [(2R)-N-{(1R,2S,4R)-1-(3-bromobenzyl)-6-(2,4-dichlorophenyl)-4-[(4-fluorophenyl)sulfonyl]-2-hydroxyhexyl}tetrahydrofuran-2-carboxamide], the IC50 (in general, the point on the concentration scale where inhibition reaches its midpoint) was over 40 µM and the Ki (in general, a dissociation constant, usually derived from enzyme kinetics or from competition with a known ligand) was over 40 µM.

`O=C(N[C@@H](Cc1cccc(Br)c1)[C@H](O)C[C@H](CCc1ccc(Cl)cc1Cl)S(=O)(=O)c1ccc(F)cc1)[C@H]1CCCO1` [(2R)-N-{(1S,2R,4S)-1-(3-bromobenzyl)-6-(2,4-dichlorophenyl)-4-[(4-fluorophenyl)sulfonyl]-2-hydroxyhexyl}tetrahydrofuran-2-carboxamide] returned a concentration for half-maximal inhibition (IC50) of 4.2 µM.

In turn, `CC(C)CCS(=O)(=O)[C@@H](C)C[C@@H](O)[C@H](Cc1cccc(Br)c1)NC(=O)CCS(C)(=O)=O` [N-{(1S,2R,4S)-1-(3-bromobenzyl)-2-hydroxy-4-[(3-methylbutyl)sulfonyl]pentyl}-3-(methylsulfonyl)propanamide] displayed an IC50 of over 40 µM and a Ki of over 40 µM.
